Laboratory results as given in PubChem BioAssay AID1199 (EPA DSSTox, 2008).
Calls of active or inactive are those of the source.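 Rule for the calls: active = a tumour-causing dose and a tumour site recorded for mice in at least one sex group; inconclusive = only government mouse studies exist and were judged inadequate; inactive = mouse studies exist but none gave tumours.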

tested on: mouse carcinogenicity bioassay, TD50 from CPDB; assay: DSSTox (CPDBAS) Carcinogenic Potency Database Summary Mouse Bioassay Results; conditions: not given
Procedure, shortened: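 Chronic long-term mouse cancer bioassays from literature and NCI/NTP, compiled per sex. TD50 is the standardized carcinogenic potency, using the most positive experiment per sex-species; target sites follow author opinion.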

Row | SMILES | Potency [mmol/kg/day]
1 | CN(N=O)C(N)=O | 0.0119
2 | O=C1c2cccc(O)c2C(=O)c2c(O)cccc21 | 0.837

same assay, conditions: TD50_Mouse_Note: TD50 is harmonic mean of more than one positive test; TargetSites_Mouse_Female: adrenal gland; liver

Row | SMILES | Potency [mmol/kg/day]
3 | ClCC(Cl)Cl | 0.412

same assay, conditions: TD50_Mouse_Note: TD50 is harmonic mean of more than one positive test; TargetSites_Mouse_Female: clitoral gland; lung

Row | SMILES | Potency [mmol/kg/day]
4 | CCCCN(N)C=O | 0.166

same assay, conditions: TD50_Mouse_Note: TD50 is harmonic mean of more than one positive test; TargetSites_Mouse_Female: harderian gland; hematopoietic system; liver

Row | SMILES | Potency [mmol/kg/day]
5 | CN(C)c1ccc(C(=C2C=CC(=[N+](C)C)C=C2)c2ccc(N(C)C)cc2)cc1 | 0.222

same assay, conditions: TD50_Mouse_Note: TD50 is harmonic mean of more than one positive test; TargetSites_Mouse_Female: harderian gland; pituitary gland; vascular system

Row | SMILES | Potency [mmol/kg/day]
6 | C=CC(=C)C | 4.02

same assay, conditions: TD50_Mouse_Note: TD50 is harmonic mean of more than one positive test; TargetSites_Mouse_Female: hematopoietic system; liver; thyroid gland

Row | SMILES | Potency [mmol/kg/day]
7 | Nc1ccc(Cc2ccc(N)cc2)cc1 | 0.119

same assay, conditions: TD50_Mouse_Note: TD50 is harmonic mean of more than one positive test; TargetSites_Mouse_Female: hematopoietic system; lung; myocardium; stomach

Row | SMILES | Potency [mmol/kg/day]
8 | C[C@]12CC[C@@H]3c4ccc(OC(=O)Cc5ccc(N(CCCl)CCCl)cc5)cc4CC[C@H]3[C@@H]1CC[C@@H]2OC(=O)Cc1ccc(N(CCCl)CCCl)cc1 | 0.00184

same assay, conditions: TD50_Mouse_Note: TD50 is harmonic mean of more than one positive test; TargetSites_Mouse_Female: large intestine; liver; stomach

Row | SMILES | Potency [mmol/kg/day]
9 | Cc1cc2ncccc2c2nc(N)n(C)c12 | 0.073

same assay, conditions: TD50_Mouse_Note: TD50 is harmonic mean of more than one positive test; TargetSites_Mouse_Female: liver

Row | SMILES | Potency [mmol/kg/day]
10 | CN(C)c1ccc(C(=N)c2ccc(N(C)C)cc2)cc1 | 0.206
11 | CCCCC(CC)COC(=O)c1ccccc1C(=O)OCC(CC)CCCC (stereo not given) | 1.79
12 | O=C(O)C(Cl)Cl | 0.923
13 | Clc1c(Cl)c(Cl)c(Cl)c(Cl)c1Cl | 0.229

same assay, conditions: TD50_Mouse_Note: TD50 is harmonic mean of more than one positive test; TargetSites_Mouse_Female: liver; lung

Row | SMILES | Potency [mmol/kg/day]
14 | ClCCl | 13
15 | CCCC/C=N/N(C)C=O | 0.0241

same assay, conditions: TD50_Mouse_Note: TD50 is harmonic mean of more than one positive test; TargetSites_Mouse_Female: liver; stomach

Row | SMILES | Potency [mmol/kg/day]
16 | CC(=O)OCc1ccccc1 | 9.59

same assay, conditions: TD50_Mouse_Note: TD50 is harmonic mean of more than one positive test; TargetSites_Mouse_Female: liver; thyroid gland

Row | SMILES | Potency [mmol/kg/day]
17 | Clc1cc2c(cc1Cl)Oc1cc(Cl)c(Cl)cc1O2 | 4.85e-07

same assay, conditions: TD50_Mouse_Note: TD50 is harmonic mean of more than one positive test; TargetSites_Mouse_Female: liver; urinary bladder

Row | SMILES | Potency [mmol/kg/day]
18 | Nc1ccc(-c2ccccc2)cc1 | 0.0124

same assay, conditions: TD50_Mouse_Note: TD50 is harmonic mean of more than one positive test; TargetSites_Mouse_Female: liver; vascular system

Row | SMILES | Potency [mmol/kg/day]
19 | O=C1c2ccccc2CN2C(=O)c3ccccc3CN12 | 3.27
20 | Nc1ccc2nc3ccccn3c2n1 | 0.0869

same assay, conditions: TD50_Mouse_Note: TD50 is harmonic mean of more than one positive test; TargetSites_Mouse_Female: lung

Row | SMILES | Potency [mmol/kg/day]
21 | N#[N+]c1ccccc1 | 0.0712
22 | CCCNN | 0.411

same assay, conditions: TD50_Mouse_Note: TD50 is harmonic mean of more than one positive test; TargetSites_Mouse_Female: lung; mammary gland; vascular system

Row | SMILES | Potency [mmol/kg/day]
23 | C=CCl | 0.349
24 | C=C(Cl)Cl | 0.357

same assay, conditions: TD50_Mouse_Note: TD50 is harmonic mean of more than one positive test; TargetSites_Mouse_Female: lung; vascular system

Row | SMILES | Potency [mmol/kg/day]
25 | C=CCNN | 0.315
26 | CCNN | 0.0679
27 | CN(C)NC(=O)CCC(=O)O | 6.43
28 | NNC(N)=O | 2

same assay, conditions: TD50_Mouse_Note: TD50 is harmonic mean of more than one positive test; TargetSites_Mouse_Female: mammary gland

Row | SMILES | Potency [mmol/kg/day]
29 | COC(=O)[C@H]1[C@H]2C[C@@H]3c4[nH]c5cc(OC)ccc5c4CCN3C[C@H]2C[C@@H](OC(=O)c2cc(OC)c(OC)c(OC)c2)[C@@H]1OC | 0.00825

same assay, conditions: TD50_Mouse_Note: TD50 is harmonic mean of more than one positive test; TargetSites_Mouse_Female: stomach

Row | SMILES | Potency [mmol/kg/day]
30 | COP(=O)(OC)OC=C(Cl)Cl | 0.319
31 | Oc1ccccc1O | 2.22

same assay, conditions: TD50_Mouse_Note: TD50 is harmonic mean of more than one positive test; greater than ten-fold variation among TD50 values for positive res; TargetSites_Mouse_Female: esophagus; lung; mammary gland; nasal cavity; stomach; subcutaneous tissue; vascular system

Row | SMILES | Potency [mmol/kg/day]
32 | BrCCBr | 0.0397

same assay, conditions: TD50_Mouse_Note: TD50 is harmonic mean of more than one positive test; greater than ten-fold variation among TD50 values for positive res; TargetSites_Mouse_Female: harderian gland; hematopoietic system; liver; lung; mammary gland; ovary; stomach; vascular system

Row | SMILES | Potency [mmol/kg/day]
33 | C=CC=C | 0.257

same assay, conditions: TD50_Mouse_Note: TD50 is harmonic mean of more than one positive test; greater than ten-fold variation among TD50 values for positive res; TargetSites_Mouse_Female: liver; urinary bladder

Row | SMILES | Potency [mmol/kg/day]
34 | CC(=O)Nc1ccc2c(c1)Cc1ccccc1-2 | 0.034

same assay, conditions: TD50_Mouse_Note: TD50 is harmonic mean of more than one positive test; greater than ten-fold variation among TD50 values for positive res; TargetSites_Mouse_Female: pituitary gland

Row | SMILES | outcome
35 | C#C[C@]1(O)CC[C@H]2[C@@H]3CCC4=C(CCC(=O)C4)[C@H]3CC[C@@]21C | active; no positive results

same assay, conditions: TD50_Mouse_Note: TD50 value is overestimated as upper 99% confidence limit from study with 100% tumor incidence but no lifetable; harmoni

Row | SMILES | Potency [mmol/kg/day]
36 | Cc1cccc(Nc2cc(Cl)nc(SCC(=O)O)n2)c1C | 0.0334

same assay, conditions: TD50_Mouse_Note: no positive results; TargetSites_Mouse_Female: no positive results

Row | SMILES | outcome
37 | Nc1c(Cl)c(Cl)nc(C(=O)O)c1Cl | inactive; no positive results
38 | O=C1C(c2[nH]c3ccc(S(=O)(=O)O)cc3c2O)=Nc2ccc(S(=O)(=O)O)cc21 | inactive; no positive results
39 | O=[N+]([O-])c1ccc(Nc2ccc(Nc3ccccc3)c(S(=O)(=O)O)c2)c([N+](=O)[O-])c1 | inactive; no positive results
40 | O=C1OC(=O)c2ccccc21 | inactive; no positive results
41 | CC1(C)S[C@@H]2[C@H](NC(=O)[C@H](N)c3ccccc3)C(=O)N2[C@H]1C(=O)O | inactive; no positive results
42 | c1ccc2c(c1)Nc1ccccc1S2 | inactive; no positive results
43 | CN(C)[C@@H]1C(=O)C(C(N)=O)=C(O)[C@@]2(O)C(=O)C3=C(O)c4c(O)cccc4[C@@](C)(O)[C@H]3C[C@@H]12 | inactive; no positive results
44 | CC(Oc1cc(Cl)c(Cl)cc1Cl)C(=O)O (stereo not given) | inactive; no positive results
45 | Cc1cccc(OCC(O)CNC(C)(C)C)c1C (stereo not given) | inactive; no positive results
46 | FC(F)Cl | inactive; no positive results
47 | OB(O)O | inactive; no positive results
48 | CC1=CC(=O)CC(C)(C)C1 | inactive; no positive results
49 | O=C(O)c1ccccc1 | inactive; no positive results
50 | CCN(CC)CC#CC(C)(C)OC(=O)C(O)(c1ccccc1)C1CCCCC1 (stereo not given) | inactive; no positive results
51 | NCCCCCCCCCCC(=O)O | inactive; no positive results
52 | CC(=O)c1ccc(S(=O)(=O)NC(=O)NC2CCCCC2)cc1 | inactive; no positive results
53 | CN(C)C(=S)[S-].CN(C)C(=S)[S-].[Cu+2] | inactive; no positive results
54 | Oc1c(Cl)cc(Cl)c(Cl)c1Cc1c(O)c(Cl)cc(Cl)c1Cl | inactive; no positive results
55 | CCCCCc1cc(O)c2c(c1)OC(C)(C)[C@@H]1CCC(C)=C[C@@H]21 | inactive; no positive results
56 | CC(C)OC(=O)COc1ccc(Cl)cc1Cl | inactive; no positive results
57 | O=S(=O)(O)c1cc(S(=O)(=O)O)c2c(N=Nc3ccccc3)c(O)ccc2c1 | inactive; no positive results
58 | CCN(Cc1cccc(S(=O)(=O)O)c1)c1ccc(C(=C2C=CC(=[N+](CC)Cc3cccc(S(=O)(=O)O)c3)C=C2)c2ccccc2S(=O)(=O)[O-])cc1 | inactive; no positive results
59 | CC(C)NCC(O)COc1cccc2ccccc12 (stereo not given) | inactive; no positive results
60 | CCC(=O)C(CC(C)N(C)C)(c1ccccc1)c1ccccc1 (stereo not given) | inactive; no positive results
61 | Nc1ccccc1 | inactive; no positive results
62 | O=C(O)c1ccncc1 | inactive; no positive results

Row | SMILES | outcome
63 | O=[N+]([O-])c1cc(N(CCO)CCO)ccc1NCCO | inactive; no positive results
64 | Oc1ccccc1-c1ccccc1 | inactive; no positive results
65 | O=C/C(Cl)=C(/Cl)C(=O)O | inactive; no positive results
66 | CC(O)CN(C)c1ccc(NN)nn1 (stereo not given) | inactive; no positive results
67 | C=CCN=C=S | inactive; no positive results
68 | C#C[C@]1(O)CC[C@H]2[C@@H]3CCC4=C(CCC(=O)C4)[C@H]3CC[C@@]21C | inactive; no positive results
69 | Cc1c(COC(=O)C2C(/C=C(\Cl)C(F)(F)F)C2(C)C)cccc1-c1ccccc1 (stereo not given) | inactive; no positive results
70 | CC1(C)[C@H](C(=O)O[C@H](C#N)c2cccc(Oc3ccccc3)c2)[C@@H]1C=C(Br)Br | inactive; no positive results
71 | Nc1cccc(N)c1 | inactive; no positive results
72 | c1ccc(Nc2ccc(Nc3ccccc3)cc2)cc1 | inactive; no positive results
73 | Nc1cc([N+](=O)[O-])ccc1O | inactive; no positive results
74 | Cc1ccc([N+](=O)[O-])cc1 | inactive; no positive results
75 | CN(C)C(=O)Nc1cccc(C(F)(F)F)c1 | inactive; no positive results
76 | ClCOCCCCCCOCCl | inactive
77 | O=C1CCC(=O)O1 | inactive; no positive results
78 | CCc1cccc2c3c([nH]c12)C(CC)(CC(=O)O)OCC3 (stereo not given) | inactive; no positive results
79 | CN(C)CCOC(c1ccccc1)c1ccccc1 | inactive; no positive results
80 | CCCCOC(=O)COc1ccc(Cl)cc1Cl | inactive; no positive results
81 | O=C(O)CCCC/C=C(\c1ccccc1)c1cccnc1 | inactive; no positive results
82 | Nc1cc(Cl)c(-c2cc(Cl)c(N)cc2Cl)cc1Cl | inactive
83 | FC(Cl)(Cl)Cl | inactive; no positive results
84 | CCOC(=O)C(C)(C)Oc1ccc(Cl)cc1 | inactive; no positive results
85 | OC[C@@H](O)[C@H]1O[C@@H]2O[C@H](C(Cl)(Cl)Cl)O[C@@H]2[C@H]1O | inactive; no positive results
86 | CN(C)C(=S)SSC(=S)N(C)C | inactive; no positive results
87 | CCN(CC)C(=O)c1cccc(C)c1 | inactive; no positive results

same assay, conditions: TD50_Mouse_Note: only experiment is NCI/NTP bioassay inadequate; TargetSites_Mouse_Female: NTP bioassay inadequate

Row | SMILES | outcome
88 | COc1cc2c(c3c1c(=O)c1ccccc1n3C)C=CC(C)(C)O2 | ntp bioassay inadequate

same assay, conditions: TargetSites_Mouse_Female: liver

Row | SMILES | Potency [mmol/kg/day]
89 | Nc1ccc(Cc2ccc(N)c(Cl)c2)cc1Cl | 0.196

same assay, conditions: TargetSites_Mouse_Female: lung

Row | SMILES | Potency [mmol/kg/day]
90 | c1ccc2ccccc2c1 | 1.27

same assay, conditions: TargetSites_Mouse_Female: no positive results

Row | SMILES | Potency [mmol/kg/day]
91 | C=CCOCC1CO1 (stereo not given) | 1.59
92 | CCN(CC)C(=S)S[Se](SC(=S)N(CC)CC)(SC(=S)N(CC)CC)SC(=S)N(CC)CC | 0.00222
93 | Nc1ccc(-c2ccc(N)c(N)c2)cc1N | 0.8

same assay, conditions: TargetSites_Mouse_Female: no positive results - CPDB evaluation based on NCI Technical Report

Row | SMILES | Potency [mmol/kg/day]
94 | COP(=O)(OC)O/C(=C\Cl)c1cc(Cl)c(Cl)cc1Cl | 0.623

same assay, conditions: TargetSites_Mouse_Female: stomach

Row | SMILES | Potency [mmol/kg/day]
95 | C/C=C/Cl | 0.066
